From US20230172189A1, “Methods for Extending the Shelf-life of Stored Donor Blood and/or Red Blood Cells and Treated Red Blood Cell Compositions Produced Thereby” (Ohio University, priority 2020, published 2023) come the findings set out here.

Data set [1] deals with RBCs. The data set is described as follows: Hemolysis of RBCs during lipid exchange (UV-Vis absorbance at 541 nm). The format is cell-based. The note with it: for hemolysis of RBCs during lipid exchange: exogenous lipid loaded into MαCD, one hour incubation. On the procedure: The release of hemoglobin from the RBCs is considered as a sign of disrupting the cell membrane and consequently extracting the inner leaflet.
The hemolysis of RBCs during lipid exchange was measured using UV-Vis spectroscopy.
Presence of hemoglobin in the exchange solution is believed to be a disruption of the RBCs, lead to extracting the inner leaflet of the membrane. To monitor the amount of hemolysis after the exchange, the cells were centrifuged at 750×g for 5 minutes, 200 μL of the supernatant was collected, and its absorbance at 541 nm was measured using a plate reader. RBCs suspended in DPBS and water for 1 hour, at the same hematocrit concentrations as the ones used for exchange experiments, were used as negative and positive controls for the hemolysis. Both controls were also centrifuged at 750×g for 5 minutes.

Data set [2] concerns RBCs. The data set is described as follows: Confocal microscopy of RBCs after exchange with a fluorescent lipid. The data set is classed as cell-based. The note with it: 19:1 POPS:NBD-PE, one hour incubation, with or without MαCD. On the procedure:
To confirm that MαCD mediates the lipid exchange and that the lipids are exchanged with the outer leaflet only, confocal microscopy was performed on the RBCs after the exchange. A mixture of POPS and 1,2-dipalmitoyl-sn-glycero-3-phosphoethanolamine-N-(7-nitro-2-1,3-benzoxadiazol-4-yl) (NBD-PE) with a molar ratio 19:1 POPS:NBD-PE was used. RBCs are incubated for one hour with the lipid mixture without MαCD (FIG. 2A) or with the lipid mixture loaded into MαCD (FIG. 2B).
Delivering of the phospholipids to the membrane was studied using fluorescence. A quenching agent was used to diminish the fluorescence to examine whether the lipids were delivered to the outer or inner leaflet. Organic solutions of a fluorescent phospholipid (NBD-PE) and POPS were mixed to a molar ratio of 1:19 NBD-PE:POPS. The other steps prior to the exchange experiment were as mentioned before. After the exchange, the cells were centrifuged at 750×g for 5 minutes, the precipitated RBCs were collected, re-suspended in 10% sucrose in DPBS, loaded onto a glass slide, and imaged using a confocal microscope. Sodium dithionite solution was made to a concentration of 50 mM and was added to an aliquot of the exchanged RBCs 1 minute prior to loading onto glass slides and imaging.

`CCCCCCCC/C=C\CCCCCCCC(=O)OC(COC(=O)CCCCCCCCCCCCCCC)COP(=O)([O-])OCC[N+](C)(C)C` (stereo not shown) [POPC, 1-palmitoyl-2-oleoyl-glycero-3-phosphocholine]: the “hemolysis of RBCs during lipid exchange” value with RBCs [1] is “lowest hemolysis”. Turning to `CCCCCCCC/C=C\CCCCCCCC(=O)O[C@H](COC(=O)CCCCCCCCCCCCCCC)COP(=O)(O)OC[C@H](N)C(=O)O` [POPS, 1-palmitoyl-2-oleoyl-sn-glycero-3-phospho-L-serine], in the data set with RBCs [1], the “hemolysis of RBCs during lipid exchange” value was “lowest hemolysis”. On to methyl-α-cyclodextrin [MαCD], for which, in the data set with RBCs [2], the “mediation of lipid exchange with RBC outer leaflet” value is listed as “lipid exchange only occurs in the presence of MαCD”. In addition, the “capability of mediating the exchange process” value in the data set with RBCs [1] (two MαCD concentrations tested during optimisation) is “both concentrations were capable of mediating the exchange process”.
